From patent publication US12642779B1, “Albuterol aerosol suspension formulation for oral inhalation with high amount of green propellant hydrofluoroolefin (HFO) and free of co-solvent” (Amphastar Pharmaceuticals, Inc., priority 2025, dated 2026)
Where two headings read alike, the source gives them in different places.

Columns and labels:
[1] = Surfactant solubility in HFO-1234ze (E) propellant; assay type: physicochemical
[2] = cited from earlier work

Molecule	Solubility of surfactant in HFO-1234ze (E) [1]	Liquid Density at 20° C. [2] [g/mL]	Vapor Pressure at 20° C. [2] [psi]	Viscosity at 20° C. [2] [cP]	further results
polyoxyethylene (20) sorbitan monooleate [polysorbate 80]	exhibited certain solubility in HFO-1234ze (E) and showed homogenous phase				
sorbitan trioleate [span 85]	exhibited certain solubility in HFO-1234ze (E) and showed homogenous phase				
polyoxyethylene (20) sorbitan monolaurate [polysorbate 20]					Solubility of surfactant in HFO-1234ze (E) ([1]; in HFO-1234ze (E) propellant): exhibited certain solubility in HFO-1234ze (E) and showed homogenous phase
FC(C(F)(F)F)C(F)(F)F [HFA-227, 1,1,1,2,3,3,3-Heptafluoropropane]		1.41	56.6	0.26	Water solubility ([2]; at 25° C.): 610 at 25 °C ppm
polyvinylpyrrolidone K25 [PVP K25]	exhibited certain solubility in HFO-1234ze (E) and showed homogenous phase				
F/C=C/C(F)(F)F [HFO-1234ze(E), Trans-1,3,3,3-Tetrafluoropropene]		1.19	46.4	0.19	Water solubility ([2]; at 20° C.): 225 at 20 °C ppm
polyethylene glycol 1000 [PEG 1000]	exhibited certain solubility in HFO-1234ze (E) and showed homogenous phase				
FCC(F)(F)F [HFA-134a, 1,1,1,2-Tetrafluoroethane]		1.21	83.0	0.20	Water solubility ([2]; at 25° C.): 1100 at 25 °C ppm
